Test results published in paper PMC13201543 (Communications Biology, 2026).
“Also recorded” adds a separate entry of the source.

Experiments:
[1] = tested on: A*33; assay: Surface plasmon resonance, immobilized A*33; assay type: binding, human; details: for SPR binding to A*33 (in words): Biacore T200, recombinant A*33
[2] = tested on: C*07; assay: Surface plasmon resonance, immobilized C*07; assay type: binding, human; details: Biacore T200, recombinant C*07
[3] = tested on: A*24; assay: Surface plasmon resonance, immobilized A*24; assay type: binding, human
[4] = target: recombinant His-tag HLA-C*07 (human); assay: SPR
[5] = target: recombinant C-terminal His-tag HLA-A*33 (human); assay: SPR
[6] = target: recombinant C-terminal His-tag HLA-A*24 (human); assay: SPR

GNNQIDSTLKDLVEELSK [MSP3]
SPR binding to A*33 (in words) [1]: relatively weaker binding | SPR binding response, A*33 compared with C*07 ([1]; MSP3 100 μM (Fig. 8C.iii)): Distinct decrease in SPR binding response | binding to C*07 (in words) [2]: strong binding affinity

SMFWPCLLR [SAG2C]
SPR binding to A*33 (in words) [1]: higher binding affinity; also recorded: strong binding | SPR binding to A*24 (in words) ([3]; Biacore T200, immobilized A*24, different concentrations of peptide): relatively weaker binding | SPR binding response, A*24 compared with A*33 ([3]; SAG2C 100 μM (Fig. 6C.iii)): Distinct decrease in SPR binding response

GNNQIDSTLKDLVEELSK [Plasmodium antigenic peptide MSP3]
SPR response at 200 uM [4]: 60 RU | SPR response at 200 uM [5]: 12 RU

SMFWPCLLR [Toxoplasma antigenic peptide SAG2C, wild type]
SPR response at 200 uM [6]: 15 RU | SPR response at 200 uM [5]: 150 RU
